Experimental data published in patent publication US20040116420A1 (priority 2001, published 2004).

Legend:
HSV-1 protease = target: T1, HSV-1 protease (Human herpesvirus 1, UniProt P10210); test: Enzymatic assay for HSV-1 protease (assembly) inhibitor, fluorescence polarization; type: biochemical; settings: read-out: HSV-1 Enzyme inhibition IC50
T1 construct: 6xHis (N); made in house; host or cells: baculovirus expression system
In short: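 His6-tagged HSV-1 UL26 protease, baculovirus-expressed, preincubated 30 min at RT with compound in 1 M citrate/phosphate buffer pH 7.4 with 20% glycerol and 2 mM TCEP. A biotin-HTYLQA*SERFRIK-DTAF substrate was then cleaved for 60 min at RT, stopped with avidin, and read by fluorescence polarization versus no-inhibitor control.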

HSV-1 = test: Antiviral activity, HSV-1 in Vero cells, plaque method; type: cell-based; settings: Human alphaherpesvirus 1, 20 hours, 90% inhibition of plaque formation
In short: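 HSV-1 (50,000 pfu in 2% FBS-DMEM) was added to Vero cells and removed, then the compound was applied in 2% FBS-DMEM for 20 h at 37° C, 5% CO2. After a freeze-thaw, virus yield in the medium was titred by plaque assay. EC90 is the concentration giving 90% plaque reduction versus the compound-free control.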

Vero cells = test: Cytotoxicity, Vero cells, Alamar Blue; type: cell-based; settings: 25 μM, 20 hours
Procedure: An Assay Method for Cytotoxicity
The Vero cells were sown on a 96-well plate and then cultured overnight. The culture supernatant was removed, and 200 μl of 2% FBS-DMEM comprising 25 μM of the test compound was added. In this case, a substance to which 2% FBS-DMEM not comprising any test compound had been added was determined as a control. These cells were incubated in the presence of 5% CO2 at 37° C. for 20 hours. Alamar Blue (20 μl) was added to the cells, and cells were incubated for about 6 hours until the color of the control changed. The ratio of the absorbance was assayed using a microplate reader for absorption, and the value relative to the control was determined to be the ratio of living cells.

T1 sequence (P10210 1-247): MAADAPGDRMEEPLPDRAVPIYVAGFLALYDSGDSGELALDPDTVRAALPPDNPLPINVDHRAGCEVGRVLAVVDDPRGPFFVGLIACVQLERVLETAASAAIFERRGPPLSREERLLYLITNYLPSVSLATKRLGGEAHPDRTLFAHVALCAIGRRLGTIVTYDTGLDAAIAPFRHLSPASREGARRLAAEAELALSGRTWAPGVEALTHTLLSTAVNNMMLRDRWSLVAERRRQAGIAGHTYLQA

Compound	IC50 (HSV-1 protease)	EC90 (HSV-1)	Cell viability (% of control) (Vero cells)
Cc1c(NC(=O)OC(C)(C)C)ccc2nc(N[C@@H](CC(C)C)C(=O)N(C)CCc3ccncc3)oc(=O)c12 [Compound No.54, (5-Methyl-2-{3-methyl-1S-[methyl-(2-pyridin-4-yl-ethyl)-carbamoyl]-butylamino}-4-oxo-4H-benzo[d][1,3]oxazin-6-yl)-carbamic acid tert-butyl ester]	1.8 µM	6.2 µM	62.8%
Cc1c(NC(=O)OC(C)(C)C)ccc2nc(N[C@@H](CC3CCCCC3)C(=O)N(C)CCc3ccncc3)oc(=O)c12 [Compound No.55, (2-{2-Cyclohexyl-1S-[methyl-(2-pyridin-4-yl-ethyl)-carbamoyl]-ethylamino}-5-methyl-4-oxo-4H-benzo[d][1,3]oxazin-6-yl)-carbamic acid tert-butyl ester]	7.4 µM	5.9 µM	43.8%
Cc1c(NC(=O)OC(C)(C)C)ccc2nc(N[C@@H](CCc3ccccc3)C(=O)N(C)CCc3ccncc3)oc(=O)c12 [Compound No.56, (5-Methyl-2-{1S-[methyl-(2-pyridin-4-yl-ethyl)-carbamoyl]-3-phenyl-propylamino}-4-oxo-4H-benzo[d][1,3]oxazin-6-yl)-carbamic acid tert-butyl ester]	3.2 µM	3.7 µM	77.9%
Cc1c(NC(=O)OC(C)(C)C)ccc2nc(N[C@@H](Cc3ccccc3)C(=O)N(C)Cc3ccccn3)oc(=O)c12 [Compound No.57, {5-Methyl-2-[1S-(methyl-pyridin-2-ylmethyl-carbamoyl)-2-phenyl-ethylamino]-4-oxo-4H-benzo[d][1,3]oxazin-6-yl}-carbamic acid tert-butyl ester]	1.7 µM	< 3.2 µM	71.3%
Cc1c(NC(=O)OC(C)(C)C)ccc2nc(N[C@H](C(=O)N(C)Cc3ccccn3)C(C)(C)C)oc(=O)c12 [Compound No.60, {2-[2,2-Dimethyl-1S-(methyl-pyridin-2-ylmethyl-carbamoyl)-propylamino]-5-methyl-4-oxo-4H-benzo[d][1,3]oxazin-6-yl}-carbamic acid tert-butyl ester]	26.9 µM	4.7 µM	89.6%
Cc1c(NC(=O)OC(C)(C)C)ccc2nc(N[C@H](C(=O)N(C)Cc3ccccn3)C(C)C)oc(=O)c12 [Compound No.61, {5-Methyl-2-[2-methyl-1S-(methyl-pyridin-2-ylmethyl-carbamoyl)-propylamino]-4-oxo-4H-benzo[d][1,3]oxazin-6-yl}-carbamic acid tert-butyl ester]	3.3 µM	4.7 µM	107.0%
Cc1c(NC(=O)OC(C)(C)C)ccc2nc(N[C@@H](CC(C)C)C(=O)N(C)Cc3ccccn3)oc(=O)c12 [Compound No.62, {5-Methyl-2-[3-methyl-1S-(methyl-pyridin-2-ylmethyl-carbamoyl)-butylamino]-4-oxo-4H-benzo[d][1,3]oxazin-6-yl}-carbamic acid tert-butyl ester]	2.4 µM	4.7 µM	83.9%
Cc1c(NC(=O)OC(C)(C)C)ccc2nc(N[C@@H](CC3CCCCC3)C(=O)N(C)Cc3ccccn3)oc(=O)c12 [Compound No.63, {2-[2-Cyclohexyl-1S-(methyl-pyridin-2-ylmethyl-carbamoyl)-ethylamino]-5-methyl-4-oxo-4H-benzo[d][1,3]oxazin-6-yl}-carbamic acid tert-butyl ester]	1.2 µM	< 3.2 µM	60.1%
Cc1c(NC(=O)OC(C)(C)C)ccc2nc(N[C@@H](Cc3ccccc3)C(=O)N(C)CCc3cccnc3)oc(=O)c12 [Compound No.64, (5-Methyl-2-{1S-[methyl-(2-pyridin-3-yl-ethyl)-carbamoyl]-2-phenyl-ethylamino}-4-oxo-4H-benzo[d][1,3]oxazin-6-yl)-carbamic acid tert-butyl ester]	0.8 µM	5.1 µM	70.1%
Cc1c(NC(=O)OC(C)(C)C)ccc2nc(N[C@H](C(=O)N(C)CCc3cccnc3)C(C)(C)C)oc(=O)c12 [Compound No.66, (2-{2,2-Dimethyl-1S-[methyl-(2-pyridin-3-yl-ethyl)-carbamoyl]-propylamino}-5-methyl-4-oxo-4H-benzo[d][1,3]oxazin-6-yl)-carbamic acid tert-butyl ester]	14 µM	4.6 µM	81.5%
Cc1c(NC(=O)OC(C)(C)C)ccc2nc(N[C@H](C(=O)N(C)CCc3cccnc3)C(C)C)oc(=O)c12 [Compound No.67, (5-Methyl-2-{2-methyl-1S-[methyl-(2-pyridin-3-yl-ethyl)-carbamoyl]-propylamino}-4-oxo-4H-benzo[d][1,3]oxazin-6-yl)-carbamic acid tert-butyl ester]	1.5 µM	5.3 µM	96.5%
Cc1c(NC(=O)OC(C)(C)C)ccc2nc(N[C@@H](CC(C)C)C(=O)N(C)CCc3cccnc3)oc(=O)c12 [Compound No.68, (5-Methyl-2-{3-methyl-1S-[methyl-(2-pyridin-3-yl-ethyl)-carbamoyl]-butylamino}-4-oxo-4H-benzo[d][1,3]oxazin-6-yl)-carbamic acid tert-butyl ester]	2 µM	6.1 µM	66.9%
Cc1c(NC(=O)OC(C)(C)C)ccc2nc(N[C@@H](CC3CCCCC3)C(=O)N(C)CCc3cccnc3)oc(=O)c12 [Compound No.69, (2-{2-Cyclohexyl-1S-[methyl-(2-pyridin-3-yl-ethyl)-carbamoyl]-ethylamino}-5-methyl-4-oxo-4H-benzo[d][1,3]oxazin-6-yl)-carbamic acid tert-butyl ester]	3.6 µM	< 3.2 µM	49.5%
Cc1c(NC(=O)OC(C)(C)C)ccc2nc(N[C@@H](CCc3ccccc3)C(=O)N(C)CCc3cccnc3)oc(=O)c12 [Compound No.70, (5-Methyl-2-{1S-[methyl-(2-pyridin-3-yl-ethyl)-carbamoyl]-3-phenyl-propylamino}-4-oxo-4H-benzo[d][1,3]oxazin-6-yl)-carbamic acid tert-butyl ester]	0.9 µM	< 3.2 µM	48.0%
Cc1c(NC(=O)OC(C)(C)C)ccc2nc(N(C)[C@@H](C)C(=O)NCc3ccccn3)oc(=O)c12 [Compound No.71, [5-Methyl-2-(methyl-{1S-[(pyridin-2-ylmethyl)-carbamoyl]-ethyl}-amino)-4-oxo-4H-benzo[d][1,3]oxazin-6-yl]-carbamic acid tert-butyl ester]	0.8 µM	> 12.5 µM	107.0%
Cc1c(NC(=O)OC(C)(C)C)ccc2nc(N(C)[C@@H](C)C(=O)NCc3cccnc3)oc(=O)c12 [Compound No.72, [5-Methyl-2-(methyl-{1S-[(pyridin-3-ylmethyl)-carbamoyl]-ethyl}-amino)-4-oxo-4H-benzo[d][1,3]oxazin-6-yl]-carbamic acid tert-butyl ester]	1.1 µM	> 12.5 µM	90.7%
Cc1c(NC(=O)OC(C)(C)C)ccc2nc(N(C)[C@@H](C)C(=O)NCc3ccncc3)oc(=O)c12 [Compound No.73, [5-Methyl-2-(methyl-{1S-[(pyridin-4-ylmethyl)-carbamoyl]-ethyl}-amino)-4-oxo-4H-benzo[d][1,3]oxazin-6-yl]-carbamic acid tert-butyl ester]	1 µM	> 12.5 µM	79.8%
Cc1c(NC(=O)OC(C)(C)C)ccc2nc(N(C)[C@@H](C)C(=O)NCCc3ccccn3)oc(=O)c12 [Compound No.74, (5-Methyl-2-{methyl-[1S-(2-pyridin-2-ylethylcarbamoyl)-ethyl]-amino}-4-oxo-4H-benzo[d][1,3]oxazin-6-yl)-carbamic acid tert-butyl ester]	1.5 µM	> 12.5 µM	95.3%
Cc1c(NC(=O)OC(C)(C)C)ccc2nc(N(C)[C@@H](C)C(=O)N(C)Cc3ccccn3)oc(=O)c12 [Compound No.75, (5-Methyl-2-{methyl-[1S-(methyl-pyridin-2-ylmethyl-carbamoyl)-ethyl]-amino}-4-oxo-4H-benzo[d][1,3]oxazin-6-yl)-carbamic acid tert-butyl ester]	2.2 µM	> 12.5 µM	93.1%
Cc1c(NC(=O)OC(C)(C)C)ccc2nc(N(C)[C@@H](C)C(=O)N(C)CCc3ccccn3)oc(=O)c12 [Compound No.76, [5-Methyl-2-(methyl-{1S-[methyl-(2-pyridin-2-yl-ethyl)-carbamoyl]-ethyl}-amino)-4-oxo-4H-benzo[d][1,3]oxazin-6-yl]-carbamic acid tert-butyl ester]	2.1 µM	> 12.5 µM	87.9%
